The target in one data set is DNA-PK (Homo sapiens (Human), UniProt P78527). Briefly: DNA-PK assay (biochemical), flashplate 33P-ATP kinase assay. The method, then:
A) DNA-PK Assay (Biochemical)
The kinase assay was carried out in streptavidin-coated […] microtitre flashplates. […] The reaction was stopped using 50 μl/well of 200 mM EDTA. After incubation for a further 30 min at room temperature, the liquid was removed. Each well was washed three times with 100 μl of 0.9% saline solution. A nonspecific reaction (blank value) was determined using 10 μM of an innate kinase inhibitor. The radioactivity measurement was carried out using a TopCount. IC50 values were calculated in RS1.

Data set [1] has as its target DNA-PK phosphorylation at serine 2056 (Homo sapiens (Human), UniProt P78527). Briefly: DNA-PK phosphorylation at serine 2056 (cellular), bleomycin-treated HCT116 cells, ELISA. Format: cell-based. The method, then:
HCT116 cells were cultivated at 37° C. and 10% CO2 in MEM alpha medium with 10% of foetal calf serum and 2 mM glutamine. The cells were detached from the base of the culture vessels with the aid of trypsin/EDTA, centrifuged off in centrifuge tubes, taken up in fresh medium, and the cell density was determined. 100,000 cells were sown in 1 ml of culture medium per cavity of a 24-well cell culture plate and cultivated overnight. Next day, 10 μM bleomycin (DNA intercalator and inductor of DNA double-strand breaks) and test substances in fresh culture medium were added to the cells, and these were cultivated for a further six hours. […] The 96-well ELISA plates were subsequently treated with a detection antibody (Abcam ab79444: total DNA-PK) and a streptavidin-HRP conjugate. The development of the enzymatic reaction was carried out with the aid of a chemiluminescent reagent, the chemiluminescence was measured with the aid of a Mithras LB940. The signals with the phospho-DNA-PK-specific antibody were standardised to the signal with the antibody against the total protein DNA-PKc. […] The DMSO control was used as blank.
For orientation: In an ELISA, binding on a coated surface is turned into a signal by an enzyme label.

Another data set deals with Kv11.1 (hERG) (Homo sapiens (Human), UniProt Q12809). Description: Kv11.1 (hERG) ion channel activity (patch clamp assay), HEK293 cells transfected with hERG gene.
[2] abbreviates: Table 5, HCT116 cells, read-out: IC50 pDNA-PK.
Where [3] appears, read: cellular, HCT116 cells, 10 μM bleomycin, six hours, read-out: IC50 pDNA-PK.
The mark [4] stands for this setting: read-out: Ki [Kv1.11 hERG], patch clamp, HEK293 transfected with hERG gene.
[5] abbreviates: Ki [Kv1.11 hERG], patch clamp, HEK293 transfected with hERG gene.
The mark [6] stands for this setting: Ki [Kv1.11 hERG], hERG patch clamp assay (cells without asterisk).
[7] abbreviates: read-out: Ki [Kv1.11 hERG], Table 5.

Like-named read-outs stand apart in the source and are kept apart here.

Kv11.1 (hERG), sequence (Q12809 whole entry): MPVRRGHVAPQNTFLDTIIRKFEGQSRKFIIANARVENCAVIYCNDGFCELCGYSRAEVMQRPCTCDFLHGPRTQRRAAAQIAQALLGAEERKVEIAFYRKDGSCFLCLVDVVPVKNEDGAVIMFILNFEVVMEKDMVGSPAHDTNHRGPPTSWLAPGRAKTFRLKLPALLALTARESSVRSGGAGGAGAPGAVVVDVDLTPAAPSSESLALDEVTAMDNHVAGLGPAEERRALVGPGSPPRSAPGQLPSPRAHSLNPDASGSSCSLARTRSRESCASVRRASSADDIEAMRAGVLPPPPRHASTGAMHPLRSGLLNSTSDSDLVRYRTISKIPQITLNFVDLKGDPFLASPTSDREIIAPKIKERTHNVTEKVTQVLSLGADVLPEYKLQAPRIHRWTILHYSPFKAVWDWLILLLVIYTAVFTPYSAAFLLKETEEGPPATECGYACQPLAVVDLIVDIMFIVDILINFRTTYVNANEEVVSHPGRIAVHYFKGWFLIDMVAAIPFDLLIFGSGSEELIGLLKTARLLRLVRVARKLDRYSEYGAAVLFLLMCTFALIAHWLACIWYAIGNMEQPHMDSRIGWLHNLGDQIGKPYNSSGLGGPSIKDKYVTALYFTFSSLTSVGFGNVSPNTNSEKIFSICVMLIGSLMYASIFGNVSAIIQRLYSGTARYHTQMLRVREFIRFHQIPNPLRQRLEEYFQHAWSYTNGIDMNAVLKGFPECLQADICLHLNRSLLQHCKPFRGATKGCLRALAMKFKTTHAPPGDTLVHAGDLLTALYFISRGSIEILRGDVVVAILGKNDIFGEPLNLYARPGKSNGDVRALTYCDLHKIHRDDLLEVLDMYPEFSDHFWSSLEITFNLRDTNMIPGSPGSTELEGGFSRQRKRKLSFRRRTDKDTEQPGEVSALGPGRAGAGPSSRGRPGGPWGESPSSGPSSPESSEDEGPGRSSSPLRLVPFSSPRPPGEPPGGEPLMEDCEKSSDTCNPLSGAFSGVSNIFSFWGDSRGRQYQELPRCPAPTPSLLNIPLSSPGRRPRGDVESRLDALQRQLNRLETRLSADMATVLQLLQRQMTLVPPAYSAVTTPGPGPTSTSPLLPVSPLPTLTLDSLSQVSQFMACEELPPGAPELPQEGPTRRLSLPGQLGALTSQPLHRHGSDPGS

Consider `OC(c1ccc(F)c(-c2ncnc3cc(N4CCOCC4)sc23)c1)c1nccs1` (racemic) [Example 144, [4-fluoro-3-(6-morpholin-4-ylthieno[3,2-d]pyrimidin-4-yl)phenyl]thiazol-2-ylmethanol], for which the 50% inhibitory concentration (IC50) (commonly the point on the concentration scale where inhibition reaches its midpoint) against DNA-PK (Table 5) is less than 0.003 µM; in data set [1] (setting [2]) it was 0.5 to 5 µM. Also, the inhibition constant Ki (commonly a measure of affinity in units of concentration, obtained from inhibition or displacement) at Kv11.1 (hERG) (human, HEK293 cells stably transfected with the hERG gene, Ki [Kv1.11 hERG], Table 5) is 15 to 25 µM.

On to `OC(c1ccc2nccn2n1)c1cc(-c2ncnc3cc(N4CCOCC4)ccc23)c(F)cc1F` (single isomer, unassigned) [Example 20, [2,4-Difluoro-5-(7-morpholin-4-yl-quinazolin-4-yl)phenyl]-imidazo[1,2-b]pyridazin-6-ylmethanol], for which the half-maximal inhibitory concentration (IC50) on DNA-PK (enzymatic, 5 μM ATP) was 0.007 to 0.03 µM; in data set [1] (setting [3]) it was 5 to 10 µM. Further, the Ki at Kv11.1 (hERG) (setting [4]) is greater than 25 µM.

On to `OC(c1ccc2nccn2n1)c1cc(-c2ncnc3cc(N4CCOCC4)ccc23)c(F)cc1F` (single isomer, unassigned) [Example 21, [2,4-Difluoro-5-(7-morpholin-4-yl-quinazolin-4-yl)phenyl]-imidazo[1,2-b]pyridazin-6-ylmethanol], for which the IC50 against DNA-PK (enzymatic, 5 μM ATP) is less than 0.003 µM; in data set [1] (setting [3]), less than 0.5 µM. The Ki on Kv11.1 (hERG) (setting [4]) was greater than 25 µM.

As for `OC(c1ccc(F)c(-c2ncnc3cc(N4CCOCC4)sc23)c1)c1nccnc1Cl` (single isomer, unassigned) [Example 23, (3-Chloro-pyrazin-2-yl)-[4-fluoro-3-(6-morpholin-4-yl-thieno-[3,2-d}pyrimidin-4-yl)-phenyl]methanol], the IC50 against DNA-PK (enzymatic, 5 μM ATP) was in the range of 0.007 to 0.03 µM; in data set [1] (setting [3]) it was 5 to 10 µM. Moreover, the Ki on Kv11.1 (hERG) (setting [4]) was greater than 25 µM.

As to `COc1ccc(C(O)c2cc(-c3ncnc4cc(N5CCOCC5)ccc34)c(F)cc2F)nn1` (single isomer, unassigned) [Example 129, [2,4-Difluoro-5-(7-morpholin-4-yl-quinazolin-4-yl)-phenyl]-(6-methoxy-pyridazin-3-yl)-methanol], the inhibitory constant (Ki) at Kv11.1 (hERG) (setting [5]) was 15 to 25 µM.

`COc1ccc(C(O)c2cc(-c3ncnc4cc(N5CCOCC5)ccc34)c(F)cc2F)nn1` (single isomer, unassigned) [Example 130, [2,4-Difluoro-5-(7-morpholin-4-yl-quinazolin-4-yl)-phenyl]-(6-methoxy-pyridazin-3-yl)-methanol]: the Ki on Kv11.1 (hERG) (setting [4]) is greater than 25 µM.

Molecule `[2H]C1([2H])OC([2H])([2H])C([2H])([2H])N(c2ccc3c(-c4cc(C(O)c5ccc(OC)nn5)c(Cl)cc4F)ncnc3c2)C1([2H])[2H]` (single isomer, unassigned) [Example 239, [2-Chloro-4-fluoro-5-[7-(2,2.3,3,5,5,6,6-octadeuteriomorpholin-4-yl)quinazolin-4-yl]phenyl]-(6-methoxypyridazin-3-yl)methanol] gave an inhibition constant Ki at Kv11.1 (hERG) (setting [6]) of 15 to 25 µM.

As to `OC(c1ccc(OC2COC2)nn1)c1cc(-c2ncnc3cc(N4CCOCC4)ccc23)c(F)cc1Cl` (stereo not drawn) [Example 100, [2-Chloro-4-fluoro-5-(7-morpholin-4-yl-quinazolin-4-yl)-phenyl]-[6-(oxetan-3-yloxy)pyridazin-3-yl)-methanol], in data set [1] (setting [3]), the half-maximal inhibitory concentration (IC50) is less than 0.5 µM. The molecule further showed a Ki at Kv11.1 (hERG) (setting [5]) of 10 to 15 µM.

On to `COc1ccc(C(O)c2cc(-c3ncnc4cc(N5CCOCC5)ccc34)c(F)cc2F)nn1` (stereo not drawn) [Example 131, [2,4-Difluoro-5-(7-morpholin-4-yl-quinazolin-4-yl)-phenyl]-(6-methoxy-pyridazin-3-yl)-methanol], for which, at Kv11.1 (hERG) (setting [5]), the Ki was 15 to 25 µM.

Turning to `COc1ccc([C@H](O)c2cc(-c3ncnc4cc(N5CCOCC5)ccc34)c(F)cc2Cl)nn1` [Example 135, (R)-[2-Chloro-4-fluoro-5-(7-morpholin-4-yl-quinazolin-4-yl)-phenyl]-(6-methoxy-pyridazin-3-yl)-methanol], on Kv11.1 (hERG) (setting [4]), the Ki was greater than 25 µM.

For the molecule `COc1ccc([C@@H](O)c2cc(-c3ncnc4cc(N5CCOCC5)ccc34)c(F)cc2Cl)nn1` [Example 136, (S)-[2-Chloro-4-fluoro-5-(7-morpholin-4-yl-quinazolin-4-yl)-phenyl]-(6-methoxy-pyridazin-3-yl)-methanol], on Kv11.1 (hERG) (setting [4]), the Ki was greater than 25 µM.

For the molecule `COc1ccc(C(O)c2cc(-c3ncnc4cc(N5CCOCC5)ccc34)c(F)cc2Cl)nn1` (stereo not drawn) [Example 137, [2-Chloro-4-fluoro-5-(7-morpholin-4-ylquinazolin-4-yl)-phenyl]-(6-methoxy-pyridazin-3-yl)-methanol], the Ki at Kv11.1 (hERG) (setting [5]) was 10 to 15 µM.

For the molecule `CC(O)(c1cncc(-c2ncnc3cc(N4CCOCC4)ccc23)c1)c1nccs1` (stereo not drawn) [Example 138, 1-[5-(7-Morpholin-4-ylquinazolin-4-yl)-pyridin-3-yl]-1-thiazol-2-ylethanol], the half-maximal inhibitory concentration (IC50) against DNA-PK (Table 5) is greater than 0.03 µM. At Kv11.1 (hERG) (Ki [Kv1.11 hERG], Table 5), the inhibition constant Ki was in the range of 15 to 25 µM.

Regarding `OC(c1ccc(F)c(-c2ncnc3cc(N4CCOCC4)sc23)c1)c1nccs1` (stereo not drawn) [Example 145, [4-fluoro-3-(6-morpholin-4-ylthieno[3,2-d]pyrimidin-4-yl)phenyl]thiazol-2-ylmethanol], the IC50 in data set [1] (setting [2]) was 0.5 to 5 µM. Also, the Ki at Kv11.1 (hERG) (setting [7]) is greater than 25 µM.

Molecule `OC(c1ccc(-c2ncnc3cc(N4CCOCC4)ccc23)s1)c1nccs1` (stereo not drawn) [Example 147, [5-(7-Morpholin-4-ylquinazolin-4-yl)-thiophen-2-yl]-thiazol-2-ylmethanol] returned a Ki on Kv11.1 (hERG) (Ki [Kv1.11 hERG], Table 5) of 10 to 15 µM.

With `OC(c1cccc(-c2ncnc3cc(N4CCOCC4)ccc23)c1)c1nccs1` (stereo not drawn) [Example 149, [3-(7-Morpholin-4-ylquinazolin-4-yl)-phenyl]thiazol-2-yl-methanol], the IC50 against DNA-PK (Table 5) was greater than 0.03 µM. In addition, at Kv11.1 (hERG) (setting [7]), the Ki is greater than 25 µM.

For the molecule `CC(O)(c1cccc(-c2ncnc3cc(N4CCOCC4)ccc23)c1)c1nccs1` (stereo not drawn) [Example 154, 1-[3-(7-Morpholin-4-ylquinazolin-4-yl)-phenyl]-1-thiazol-2-ylethanol], on DNA-PK (Table 5), the concentration for half-maximal inhibition (IC50) is greater than 0.03 µM. For the same molecule, the inhibitory constant (Ki) on Kv11.1 (hERG) (Ki [Kv1.11 hERG], Table 5) fell in the range of 15 to 25 µM.

In turn, `OCc1csc(C(O)c2cc(-c3ncnc4cc(N5C6CCC5COC6)ccc34)c(F)cc2Cl)n1` (stereo not drawn) [Example 187, {2-Chloro-4-fluoro-5-[7-(3-oxa-8-aza-bicyclo[3.2.1]oct-8-yl)quinazolin-4-yl]-phenyl}-(4-hydroxy-methylthiazol-2-yl)-methanol] yielded a concentration for half-maximal inhibition (IC50) in data set [1] (IC50 pDNA-PK, Table 5, HCT116 cells) of 10 to 30 µM. At Kv11.1 (hERG) (Ki [Kv1.11 hERG], Table 5), this molecule showed a Ki of 15 to 25 µM.

`Cc1nc(C(O)c2cc(-c3ncnc4cc(N5CCOCC5)ncc34)cnc2F)sc1C` (stereo not drawn) [Example 192, (4,5-Dimethyl-thiazol-2-yl)-[2-fluoro-5-(7-morpholin-4-yl-pyrido[4,3-d}-pyrimidin-4-yl)-pyridin-3-yl]-methanol] showed an IC50 at DNA-PK (Table 5) greater than 0.03 µM. Besides, the inhibition constant Ki on Kv11.1 (hERG) (Ki [Kv1.11 hERG], Table 5) lay in the range of 10 to 15 µM.

`Cc1nc(C(O)c2cc(-c3ncnc4cc(N5CCOCC5)ccc34)cnc2F)sc1C` (stereo not drawn) [Example 194, (4,5-Dimethyl-thiazol-2-yl)-[2-fluoro-5-(7-morpholin-4-yl-quinazolin-4-yl)-pyridin-3-yl]-methanol] came in with a 50% inhibitory concentration (IC50) against DNA-PK (Table 5) of 0.007 to 0.03 µM. In addition, the Ki on Kv11.1 (hERG) (setting [7]) was greater than 25 µM.

On DNA-PK (Table 5), `Cc1csc(C(O)c2cnc(F)c(-c3ncnc4cc(N5CCOCC5)ncc34)c2)n1` (stereo not drawn) [Example 195, [6-Fluoro-5-(7-morpholin-4-yl-pyrido[4,3-d}-pyrimidin-4-yl)-pyridin-3-yl]-(4-methyl-thiazol-2-yl)-methanol] displayed an IC50 greater than 0.03 µM. On Kv11.1 (hERG) (Ki [Kv1.11 hERG], Table 5), this molecule came in with an inhibition constant Ki of 15 to 25 µM.

On DNA-PK (Table 5), `CC(C)(C)n1cc(C(O)c2cc(-c3ncnc4cc(N5CCOCC5)ccc34)cnc2F)cn1` (stereo not drawn) [Example 198, (1-tert-Butyl-1H-pyrazol-4-yl)-[2-fluoro-5-(7-morpholin-4-yl-quinazolin-4-yl)-pyridin-3-yl]-methanol] displayed a concentration for half-maximal inhibition (IC50) of 0.007 to 0.03 µM. In addition, the inhibition constant (Ki) at Kv11.1 (hERG) (setting [7]) was greater than 25 µM.

`Cc1nc(C(O)c2cc(-c3ncnc4cc(N5CCOCC5)ccc34)cnc2F)sc1C` (stereo not drawn) [Example 206, (4,5-Dimethyl-thiazol-2-yl)-[2-fluoro-5-(7-morpholin-4-yl-quinazolin-4-yl)-pyridin-3-yl]-methanol] gave an IC50 against DNA-PK (Table 5) greater than 0.03 µM. At Kv11.1 (hERG) (Ki [Kv1.11 hERG], Table 5), this molecule registered a Ki of 15 to 25 µM.

`[2H]c1c(N2CCOCC2)cc2ncnc(-c3cc(C(O)c4ccc(OC)nn4)c(Cl)cc3F)c2c1[2H]` (stereo not drawn) [Example 225, [2-Chloro-5-(5,6-dideuterio-7-morpholinylquinazolin-4-yl)-4-fluorophenyl]-(6-methoxypyridazin-3-yl)methanol] displayed a Ki at Kv11.1 (hERG) (setting [6]) greater than 25 µM.

Turning to `NC(=O)C(c1cc(-c2ncnc3cc(N4CCOCC4)ccc23)c(F)cc1Cl)c1ncnn2cccc12` (stereo not drawn) [Example 309, 2-[2-Chloro-4-fluoro-5-(7-morpholin-4-yl-quinazolin-4-yl)-phenyl]-2-[3H-pyrrolo[2,1-f][1,2,4]-triazin-(4E)-ylidene]-acetamide], the IC50 in data set [1] (cellular DNA-PK phosphorylation at serine 2056, HCT116, read-out: IC50 pDNA-PK) lay within 10 to 30 µM. The inhibition constant (Ki) on Kv11.1 (hERG) (read-out: Ki [Kv1.11 hERG], hERG patch clamp assay (cells without asterisk)) is less than 10 µM.
